Test results reported in patent publication US11395847B2, “Acylated GLP-1/GLP-2 dual agonists” (Zealand Pharma A/S, priority 2016, dated 2022).
Where a SMILES comes first, the peptide text is derived from it.

Experiment: Chemical stability (RP-HPLC normalized purity after incubation at 40° C.)
Assay type: physicochemical
Conditions: pH 7, 40° C., 14-day incubation, 0.2 mg/ml, normalized purity (area-%)
Protocol: Samples of each test peptide were dissolved in MILLIQ™ water, and the pH of the solution was adjusted to pH 6, 7, 7.5 or 9 using either HCl or NaOH. The final peptide concentration was 0.2 mg/ml. Samples were placed in glass vials and incubated at 40° C. The samples were analyzed by RP-HPLC on a C18 column with gradient elution using an acetonitrile/TFA/water eluent system. The area-percentage (area-%) of the main peak after incubation time T=t (relative to time T=0) was determined by UV spectroscopy at 220 nm.
The purity was first determined as follows: Purity(area-%)=(area of main peak/total area of all peaks)×100.
The purity was then normalized between time points by setting purity at time 0 (T=0) to 100 for each pH value for a given peptide, as follows: Normalized area-% at time t(T=t)=[area-%(T=t)/area-%(T=0)]×100.
The chemical stability assessment results after 14-day incubation (in the form of normalized purity values) are summarized in Table 4.

pH 7 normalized stability	Structure (SMILES)
A (>90% normalised stability)	CC[C@H](C)[C@H](NC(=O)[C@H](Cc1ccccc1)NC(=O)[C@H](CC(=O)O)NC(=O)[C@H](CCCNC(=N)N)NC(=O)[C@H](C)NC(=O)[C@H](C)NC(=O)[C@H](CCC(N)=O)NC(=O)[C@H](CCC(=O)O)NC(=O)[C@H](CC(=O)O)NC(=O)[C@H](CC(C)C)NC(=O)[C@@H](NC(=O)[C@@H](NC(=O)[C@H](C)NC(=O)[C@H](CCCCNC(=O)COCCOCCNC(=O)[C@H](CCCCN)NC(=O)[C@H](CCC(=O)O)NC(=O)[C@H](CCCCN)NC(=O)CC[C@H](NC(=O)CCCCCCCCCCCCCCCCCCC(=O)O)C(=O)O)NC(=O)[C@H](CCC(=O)O)NC(=O)[C@H](CO)NC(=O)[C@@H](NC(=O)[C@H](Cc1ccccc1)NC(=O)[C@H](CO)NC(=O)CNC(=O)[C@H](CCC(=O)O)NC(=O)C(C)(C)NC(=O)[C@@H](N)Cc1c[nH]cn1)[C@@H](C)O)[C@@H](C)O)[C@@H](C)CC)C(=O)N[C@@H](C)C(=O)N[C@@H](Cc1c[nH]c2ccccc12)C(=O)N[C@@H](CC(C)C)C(=O)N[C@H](C(=O)N[C@@H](CCC(=O)O)C(=O)N[C@@H](Cc1c[nH]cn1)C(=O)N[C@@H](CCCCN)C(=O)N[C@H](C(=O)N[C@H](C(=O)N[C@@H](CC(=O)O)C(=O)O)[C@@H](C)O)[C@@H](C)CC)[C@@H](C)CC [Compound 53] (HELM PEPTIDE1{H.[Aib].E.G.S.F.T.S.E.K.A.T.I.L.D.E.Q.A.A.R.D.F.I.A.W.L.I.E.H.K.I.T.D}|PEPTIDE2{[O=C(O)CCCCCCCCCCCCCCCCCCC(=O)[*:2]].[gGlu].K.E.K.[O=C(COCCOCCN[*:1])[*:2]]}$PEPTIDE1,PEPTIDE2,10:R3-6:R2$$$V2.0)
A (>90% normalised stability)	CC[C@H](C)[C@H](NC(=O)[C@H](Cc1ccccc1)NC(=O)[C@H](CC(=O)O)NC(=O)[C@H](CCCNC(=N)N)NC(=O)[C@H](C)NC(=O)[C@H](C)NC(=O)[C@H](CCC(N)=O)NC(=O)[C@H](CCCCNC(=O)COCCOCCNC(=O)CC[C@H](NC(=O)CCCCCCCCCCCCCCCCC(=O)O)C(=O)O)NC(=O)[C@H](CC(=O)O)NC(=O)[C@H](CC(C)C)NC(=O)[C@@H](NC(=O)[C@@H](NC(=O)[C@H](C)NC(=O)[C@H](CC(C)C)NC(=O)[C@H](CCC(=O)O)NC(=O)[C@H](CO)NC(=O)[C@@H](NC(=O)[C@H](Cc1ccccc1)NC(=O)[C@H](CO)NC(=O)CNC(=O)[C@H](CCC(=O)O)NC(=O)C(C)(C)NC(=O)[C@@H](N)Cc1c[nH]cn1)[C@@H](C)O)[C@@H](C)O)[C@@H](C)CC)C(=O)N[C@@H](C)C(=O)N[C@@H](Cc1c[nH]c2ccccc12)C(=O)N[C@@H](CC(C)C)C(=O)N[C@@H](Cc1ccc(O)cc1)C(=O)N[C@@H](CCC(N)=O)C(=O)N[C@@H](Cc1c[nH]cn1)C(=O)N[C@@H](CCCCN)C(=O)N[C@H](C(=O)N[C@H](C(=O)N[C@@H](CC(=O)O)C(=O)O)[C@@H](C)O)[C@@H](C)CC [Compound 33] (HELM PEPTIDE1{H.[Aib].E.G.S.F.T.S.E.L.A.T.I.L.D.K.Q.A.A.R.D.F.I.A.W.L.Y.Q.H.K.I.T.D}|PEPTIDE2{[O=C(O)CCCCCCCCCCCCCCCCC(=O)[*:2]].[gGlu].[O=C(COCCOCCN[*:1])[*:2]]}$PEPTIDE1,PEPTIDE2,16:R3-3:R2$$$V2.0)
A (>90% normalised stability)	CC[C@H](C)[C@H](NC(=O)[C@H](CC(C)C)NC(=O)[C@H](Cc1c[nH]c2ccccc12)NC(=O)[C@H](C)NC(=O)[C@@H](NC(=O)[C@H](Cc1ccccc1)NC(=O)[C@H](CC(=O)O)NC(=O)[C@H](CCCNC(=N)N)NC(=O)[C@H](C)NC(=O)[C@H](C)NC(=O)[C@H](CC(C)C)NC(=O)[C@H](CCCCNC(=O)CC[C@H](NC(=O)CCCCCCCCCCCCCCCCC(=O)O)C(=O)O)NC(=O)[C@H](CC(=O)O)NC(=O)[C@H](CC(C)C)NC(=O)[C@@H](NC(=O)[C@@H](NC(=O)[C@H](C)NC(=O)[C@H](CC(C)C)NC(=O)[C@H](CCC(=O)O)NC(=O)[C@H](CO)NC(=O)[C@@H](NC(=O)[C@H](Cc1ccccc1)NC(=O)[C@H](CO)NC(=O)CNC(=O)[C@H](CCC(=O)O)NC(=O)C(C)(C)NC(=O)[C@@H](N)Cc1c[nH]cn1)[C@@H](C)O)[C@@H](C)O)[C@@H](C)CC)[C@@H](C)CC)C(=O)N[C@@H](C)C(=O)N[C@@H](Cc1c[nH]cn1)C(=O)N[C@@H](CCCCN)C(=O)N[C@H](C(=O)N[C@H](C(=O)N[C@@H](CC(=O)O)C(=O)O)[C@@H](C)O)[C@@H](C)CC [Compound 14] (HELM PEPTIDE1{H.[Aib].E.G.S.F.T.S.E.L.A.T.I.L.D.K.L.A.A.R.D.F.I.A.W.L.I.A.H.K.I.T.D}|PEPTIDE2{[O=C(O)CCCCCCCCCCCCCCCCC(=O)[*:2]].[gGlu]}$PEPTIDE1,PEPTIDE2,16:R3-2:R2$$$V2.0)
A (>90% normalised stability)	CC[C@H](C)[C@H](NC(=O)[C@H](CC(C)C)NC(=O)[C@H](Cc1c[nH]c2ccccc12)NC(=O)[C@H](C)NC(=O)[C@@H](NC(=O)[C@H](Cc1ccccc1)NC(=O)[C@H](CC(=O)O)NC(=O)[C@H](CCCNC(=N)N)NC(=O)[C@H](C)NC(=O)[C@H](C)NC(=O)[C@H](CCC(N)=O)NC(=O)[C@H](CCCCNC(=O)COCCOCCNC(=O)[C@H](CCCCN)NC(=O)[C@H](CCC(=O)O)NC(=O)[C@H](CCCCN)NC(=O)CC[C@H](NC(=O)CCCCCCCCCCCCCCCCCCC(=O)O)C(=O)O)NC(=O)[C@H](CC(=O)O)NC(=O)[C@H](CC(C)C)NC(=O)[C@@H](NC(=O)[C@@H](NC(=O)[C@H](C)NC(=O)[C@H](CC(C)C)NC(=O)[C@H](CCC(=O)O)NC(=O)[C@H](CO)NC(=O)[C@@H](NC(=O)[C@H](Cc1ccccc1)NC(=O)[C@H](CO)NC(=O)CNC(=O)[C@H](CCC(=O)O)NC(=O)C(C)(C)NC(=O)[C@@H](N)Cc1c[nH]cn1)[C@@H](C)O)[C@@H](C)O)[C@@H](C)CC)[C@@H](C)CC)C(=O)N[C@@H](C)C(=O)N[C@@H](Cc1c[nH]cn1)C(=O)N[C@@H](CCCCN)C(=O)N[C@H](C(=O)N[C@H](C(=O)N[C@@H](CC(=O)O)C(=O)O)[C@@H](C)O)[C@@H](C)CC [Compound 58] (HELM PEPTIDE1{H.[Aib].E.G.S.F.T.S.E.L.A.T.I.L.D.K.Q.A.A.R.D.F.I.A.W.L.I.A.H.K.I.T.D}|PEPTIDE2{[O=C(O)CCCCCCCCCCCCCCCCCCC(=O)[*:2]].[gGlu].K.E.K.[O=C(COCCOCCN[*:1])[*:2]]}$PEPTIDE1,PEPTIDE2,16:R3-6:R2$$$V2.0)
